Experimental data reported in patent US4471131A, “Novel silyl esters of N-phosphonomethylglycine” (Monsanto Company, priority 1983, dated 1984).

Legend:
Assay in all cases: post-emergence herbicidal activity, greenhouse
Type in all cases: in vivo
[1] = system: Morningglory; details: Table III, formulated in anhydrous tetrahydrofuran
Summary of the method: (§1)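 Candidate chemical is applied by atomizer at the indicated rates to emerged plants of 2–3 weeks, spray containing about 0.4 wt% emulsifier. Effects are judged as injury against unsprayed control pans, approximately two and four weeks post-application.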

[2] = system: Panicum Spp; details: Table III, formulated in anhydrous tetrahydrofuran
Summary of the method: as §1

[3] = system: Pennsylvania Smartweed; details: formulated in anhydrous tetrahydrofuran
Summary of the method: as §1

[4] = system: Quackgrass; details: Table II, formulated in anhydrous tetrahydrofuran
Summary of the method: (§2)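 Injury scores compare treated plants with untreated control pans at roughly 2 and 4 weeks post-spray. Treatment was a single atomizer application, in a solution or suspension with about 0.4% emulsifier by weight, to greenhouse plants aged two to three weeks.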

[5] = system: Rice; details: Table III, formulated in anhydrous tetrahydrofuran
Summary of the method: as §1

[6] = system: Soybean; details: Table III, formulated in anhydrous tetrahydrofuran
Summary of the method: as §1

[7] = system: Sugar Beet; details: Table III, formulated in anhydrous tetrahydrofuran
Summary of the method: as §1

[8] = system: Velvetleaf; details: formulated in anhydrous tetrahydrofuran
Summary of the method: as §1

[9] = system: Wild Buckwheat; details: Table III, formulated in anhydrous tetrahydrofuran
Summary of the method: as §1

[10] = system: Yellow Nutsedge; details: Table II, formulated in anhydrous tetrahydrofuran
Summary of the method: as §2

**Q.** With `CCCCOC(=O)CNCP(=O)(O)O[Si](C)(C)C(C)(C)C` [Ex. 3, Glycine, N-((([(1,1-Dimethylethyl)Dimethylsilyl]oxy)Hydroxyphosphinyl)Methyl)-, Butyl Ester] as the compound, how does the “Plant Response Index (D)” value ([1]; 2 WAT, 1.1 kg/h) read?
**A.** 2 (50-74% inhibition)

**Q.** And the “Plant Response Index (D)” value ([1]; 2 WAT, 5.6 kg/h)?
**A.** 2 (50-74% inhibition)

**Q.** What about the “Plant Response Index (D)” value ([1]; 2 WAT, .28 kg/h) of the same compound?
**A.** 1 (25-49% inhibition)

**Q.** And the “Plant Response Index (D)” value ([1]; 4 WAT, 1.1 kg/h)?
**A.** 2 (50-74% inhibition)

**Q.** What about the “Plant Response Index (D)” value ([1]; 4 WAT, 5.6 kg/h) of the same compound?
**A.** 2 (50-74% inhibition)

**Q.** And the “Plant Response Index (D)” value ([1]; 4 WAT, .28 kg/h)?
**A.** 1 (25-49% inhibition)

**Q.** What about the “Plant Response Index (S)” value ([2]; 2 WAT, 1.1 kg/h) of the same compound?
**A.** 1 (25-49% inhibition)

**Q.** What about the “Plant Response Index (S)” value ([2]; 2 WAT, 5.6 kg/h) of the same compound?
**A.** 3 (75-99% inhibition)

**Q.** And the “Plant Response Index (S)” value ([2]; 2 WAT, .28 kg/h)?
**A.** 1 (25-49% inhibition)

**Q.** And the “Plant Response Index (S)” value ([2]; 4 WAT, 1.1 kg/h)?
**A.** 2 (50-74% inhibition)

**Q.** What about the “Plant Response Index (S)” value ([2]; 4 WAT, 5.6 kg/h) of the same compound?
**A.** 3 (75-99% inhibition)

**Q.** And the “Plant Response Index (S)” value ([2]; 4 WAT, .28 kg/h)?
**A.** 1 (25-49% inhibition)

**Q.** And the “Plant Response Index (F)” value ([3]; Table II, 2 WAT, 5.6 kg/h)?
**A.** 1 (25-49% inhibition)

**Q.** And the “Plant Response Index (F)” value ([3]; Table II, 2 WAT, 11.2 kg/h)?
**A.** 2 (50-74% inhibition)

**Q.** And the “Plant Response Index (F)” value ([3]; Table II, 4 WAT, 5.6 kg/h)?
**A.** 1 (25-49% inhibition)

**Q.** What about the “Plant Response Index (F)” value ([3]; Table II, 4 WAT, 11.2 kg/h) of the same compound?
**A.** 3 (75-99% inhibition)

**Q.** What about the “Plant Response Index (F)” value ([3]; Table III, 2 WAT, 1.1 kg/h) of the same compound?
**A.** 2 (50-74% inhibition)

**Q.** What about the “Plant Response Index (F)” value ([3]; Table III, 2 WAT, 5.6 kg/h) of the same compound?
**A.** 3 (75-99% inhibition)

**Q.** And the “Plant Response Index (F)” value ([3]; Table III, 2 WAT, .28 kg/h)?
**A.** 2 (50-74% inhibition)

**Q.** And the “Plant Response Index (F)” value ([3]; Table III, 4 WAT, 1.1 kg/h)?
**A.** 2 (50-74% inhibition)

**Q.** And the “Plant Response Index (F)” value ([3]; Table III, 4 WAT, 5.6 kg/h)?
**A.** 3 (75-99% inhibition)

**Q.** What about the “Plant Response Index (F)” value ([3]; Table III, 4 WAT, .28 kg/h) of the same compound?
**A.** 2 (50-74% inhibition)

**Q.** What about the “Plant Response Index (H)” value ([4]; 2 WAT, 5.6 kg/h) of the same compound?
**A.** 0 (0-24% inhibition)

**Q.** And the “Plant Response Index (H)” value ([4]; 2 WAT, 11.2 kg/h)?
**A.** 3 (75-99% inhibition)

**Q.** And the “Plant Response Index (H)” value ([4]; 4 WAT, 5.6 kg/h)?
**A.** 1 (25-49% inhibition)

**Q.** And the “Plant Response Index (H)” value ([4]; 4 WAT, 11.2 kg/h)?
**A.** 3 (75-99% inhibition)

**Q.** And the “Plant Response Index (O)” value ([5]; 2 WAT, 1.1 kg/h)?
**A.** 0 (0-24% inhibition)

**Q.** What about the “Plant Response Index (O)” value ([5]; 2 WAT, 5.6 kg/h) of the same compound?
**A.** 1 (25-49% inhibition)

**Q.** And the “Plant Response Index (O)” value ([5]; 2 WAT, .28 kg/h)?
**A.** 1 (25-49% inhibition)

**Q.** And the “Plant Response Index (O)” value ([5]; 4 WAT, 1.1 kg/h)?
**A.** 1 (25-49% inhibition)

**Q.** And the “Plant Response Index (O)” value ([5]; 4 WAT, 5.6 kg/h)?
**A.** 2 (50-74% inhibition)

**Q.** What about the “Plant Response Index (O)” value ([5]; 4 WAT, .28 kg/h) of the same compound?
**A.** 0 (0-24% inhibition)

**Q.** And the “Plant Response Index (L)” value ([6]; 2 WAT, 1.1 kg/h)?
**A.** 2 (50-74% inhibition)

**Q.** What about the “Plant Response Index (L)” value ([6]; 2 WAT, 5.6 kg/h) of the same compound?
**A.** 2 (50-74% inhibition)

**Q.** What about the “Plant Response Index (L)” value ([6]; 2 WAT, .28 kg/h) of the same compound?
**A.** 1 (25-49% inhibition)

**Q.** And the “Plant Response Index (L)” value ([6]; 4 WAT, 1.1 kg/h)?
**A.** 1 (25-49% inhibition)

**Q.** What about the “Plant Response Index (L)” value ([6]; 4 WAT, 5.6 kg/h) of the same compound?
**A.** 2 (50-74% inhibition)

**Q.** What about the “Plant Response Index (L)” value ([6]; 4 WAT, .28 kg/h) of the same compound?
**A.** 0 (0-24% inhibition)

**Q.** What about the “Plant Response Index (M)” value ([7]; 2 WAT, 1.1 kg/h) of the same compound?
**A.** 1 (25-49% inhibition)

**Q.** What about the “Plant Response Index (M)” value ([7]; 2 WAT, 5.6 kg/h) of the same compound?
**A.** 2 (50-74% inhibition)

**Q.** What about the “Plant Response Index (M)” value ([7]; 2 WAT, .28 kg/h) of the same compound?
**A.** 0 (0-24% inhibition)

**Q.** And the “Plant Response Index (M)” value ([7]; 4 WAT, 1.1 kg/h)?
**A.** 1 (25-49% inhibition)

**Q.** And the “Plant Response Index (M)” value ([7]; 4 WAT, 5.6 kg/h)?
**A.** 3 (75-99% inhibition)

**Q.** What about the “Plant Response Index (M)” value ([7]; 4 WAT, .28 kg/h) of the same compound?
**A.** 0 (0-24% inhibition)

**Q.** What about the “Plant Response Index (C)” value ([8]; Table II, 2 WAT, 5.6 kg/h) of the same compound?
**A.** 0 (0-24% inhibition)

**Q.** What about the “Plant Response Index (C)” value ([8]; Table II, 2 WAT, 11.2 kg/h) of the same compound?
**A.** 1 (25-49% inhibition)

**Q.** And the “Plant Response Index (C)” value ([8]; Table II, 4 WAT, 5.6 kg/h)?
**A.** 1 (25-49% inhibition)

**Q.** And the “Plant Response Index (C)” value ([8]; Table II, 4 WAT, 11.2 kg/h)?
**A.** 2 (50-74% inhibition)

**Q.** And the “Plant Response Index (C)” value ([8]; Table III, 2 WAT, 1.1 kg/h)?
**A.** 2 (50-74% inhibition)

**Q.** And the “Plant Response Index (C)” value ([8]; Table III, 2 WAT, 5.6 kg/h)?
**A.** 3 (75-99% inhibition)

**Q.** What about the “Plant Response Index (C)” value ([8]; Table III, 2 WAT, .28 kg/h) of the same compound?
**A.** 1 (25-49% inhibition)

**Q.** And the “Plant Response Index (C)” value ([8]; Table III, 4 WAT, 1.1 kg/h)?
**A.** 2 (50-74% inhibition)

**Q.** What about the “Plant Response Index (C)” value ([8]; Table III, 4 WAT, 5.6 kg/h) of the same compound?
**A.** 4 (100% inhibition)

**Q.** And the “Plant Response Index (C)” value ([8]; Table III, 4 WAT, .28 kg/h)?
**A.** 2 (50-74% inhibition)

**Q.** And the “Plant Response Index (Q)” value ([9]; 2 WAT, 1.1 kg/h)?
**A.** 2 (50-74% inhibition)

**Q.** What about the “Plant Response Index (Q)” value ([9]; 2 WAT, 5.6 kg/h) of the same compound?
**A.** 3 (75-99% inhibition)

**Q.** What about the “Plant Response Index (Q)” value ([9]; 2 WAT, .28 kg/h) of the same compound?
**A.** 1 (25-49% inhibition)

**Q.** And the “Plant Response Index (Q)” value ([9]; 4 WAT, 1.1 kg/h)?
**A.** 2 (50-74% inhibition)

**Q.** And the “Plant Response Index (Q)” value ([9]; 4 WAT, 5.6 kg/h)?
**A.** 4 (100% inhibition)

**Q.** And the “Plant Response Index (Q)” value ([9]; 4 WAT, .28 kg/h)?
**A.** 0 (0-24% inhibition)

**Q.** What about the “Plant Response Index (G)” value ([10]; 2 WAT, 5.6 kg/h) of the same compound?
**A.** 1 (25-49% inhibition)

**Q.** And the “Plant Response Index (G)” value ([10]; 2 WAT, 11.2 kg/h)?
**A.** 1 (25-49% inhibition)

**Q.** And the “Plant Response Index (G)” value ([10]; 4 WAT, 5.6 kg/h)?
**A.** 2 (50-74% inhibition)

**Q.** And the “Plant Response Index (G)” value ([10]; 4 WAT, 11.2 kg/h)?
**A.** 2 (50-74% inhibition)
